What was measured:
DOT1L [1] = target: T1, DOT1L (Homo sapiens, UniProt Q8TEK3); assay: Time-course analysis of DOT1L degradation: western blotting of nuclear extract; type: cell-based; conditions: 1 μM, multiple time points 1 h to 72 h, LNCaP cell line, nuclear extraction
T1 construct: nuclear protein was extracted using NE-PER Nuclear and Cytoplasmic Extraction Reagents; endogenous in cells; host or cells: LNCaP
Experimental: LNCaP cells were culturedincompleteRPMIl640 media. 70-80% confluent of cells were treated with 1 μM 705 (Group D), 1 μM 588 (Group A), 1 μM 593 (Group C), 1uM 534 (parent), 1 μM EPZ5676, and DMSO for 1 h, 2 h, 6 h, 24 h, 48 h, and 72 h. Then, nuclear protein was extracted using NE-PER Nuclear and Cytoplasmic Extraction Reagents (Thermo Scientific 78833) followed by western blotting. Protein band intensity was measured by Image J.
(§1) Nuclear protein extracts were separated by Bolt™ 4-12% Bis-Tris Plus Gels (Invitrogen) and transferred to PVDF membranes by wet transfer. The membranes were blocked with 5% Blotting-Grade Blocker (Bio-Rad) in Tris-buffered saline with 0.5% Tween 20 (TBST) for 1 h at room temperature, and then incubated overnight at 4° C. in blocking buffer with primary antibody including rabbit DOT1L (D1W4Z) mAb1:3000 (CellSignalingTechnology, Cat #77087) and goat lamin B(C-20) pAb 1:1000 (Santa Cruz Biotechnology, Cat #sc-6216). After incubation with HRP-conjugated goat anti-rabbit secondary antibody 1:10,000 (Bio-Rad, Cat #170-6515) or HRP-conjugated donkey anti-goat secondary antibody 1:3000 (Santa Cruz Biotechnology, Cat #sc-2020) for 1 h, the membranes were detected using Super Signal West Femto (Thermo Fisher Scientific, Cat #34096).

DOT1L [2] = target: T1, DOT1L; assay: Screening of PROTAC degraders of DOT1L: western blotting of nuclear extract; type: cell-based; conditions: 1 μM, 48 h (2 days) treatment, LNCaP cell line, Lamin B loading control
Experimental: LNCaP cells were cultured in complete RPMI1640 media. 70-80% confluent of cells were treated with 1 μM PROTAC degraders of DOT1L (Group A-D), 1 μM parent compound 534, 1 μM EPZ5676, and DMSO (Vehicle) for 48 h. Then, nuclear protein was extracted using NE-PER Nuclear and Cytoplasmic Extraction Reagents (Thermo Scientific 78833) followed by western blotting. Protein band intensity was measured by Image J.
as §1

T1 sequence (Q8TEK3 whole entry): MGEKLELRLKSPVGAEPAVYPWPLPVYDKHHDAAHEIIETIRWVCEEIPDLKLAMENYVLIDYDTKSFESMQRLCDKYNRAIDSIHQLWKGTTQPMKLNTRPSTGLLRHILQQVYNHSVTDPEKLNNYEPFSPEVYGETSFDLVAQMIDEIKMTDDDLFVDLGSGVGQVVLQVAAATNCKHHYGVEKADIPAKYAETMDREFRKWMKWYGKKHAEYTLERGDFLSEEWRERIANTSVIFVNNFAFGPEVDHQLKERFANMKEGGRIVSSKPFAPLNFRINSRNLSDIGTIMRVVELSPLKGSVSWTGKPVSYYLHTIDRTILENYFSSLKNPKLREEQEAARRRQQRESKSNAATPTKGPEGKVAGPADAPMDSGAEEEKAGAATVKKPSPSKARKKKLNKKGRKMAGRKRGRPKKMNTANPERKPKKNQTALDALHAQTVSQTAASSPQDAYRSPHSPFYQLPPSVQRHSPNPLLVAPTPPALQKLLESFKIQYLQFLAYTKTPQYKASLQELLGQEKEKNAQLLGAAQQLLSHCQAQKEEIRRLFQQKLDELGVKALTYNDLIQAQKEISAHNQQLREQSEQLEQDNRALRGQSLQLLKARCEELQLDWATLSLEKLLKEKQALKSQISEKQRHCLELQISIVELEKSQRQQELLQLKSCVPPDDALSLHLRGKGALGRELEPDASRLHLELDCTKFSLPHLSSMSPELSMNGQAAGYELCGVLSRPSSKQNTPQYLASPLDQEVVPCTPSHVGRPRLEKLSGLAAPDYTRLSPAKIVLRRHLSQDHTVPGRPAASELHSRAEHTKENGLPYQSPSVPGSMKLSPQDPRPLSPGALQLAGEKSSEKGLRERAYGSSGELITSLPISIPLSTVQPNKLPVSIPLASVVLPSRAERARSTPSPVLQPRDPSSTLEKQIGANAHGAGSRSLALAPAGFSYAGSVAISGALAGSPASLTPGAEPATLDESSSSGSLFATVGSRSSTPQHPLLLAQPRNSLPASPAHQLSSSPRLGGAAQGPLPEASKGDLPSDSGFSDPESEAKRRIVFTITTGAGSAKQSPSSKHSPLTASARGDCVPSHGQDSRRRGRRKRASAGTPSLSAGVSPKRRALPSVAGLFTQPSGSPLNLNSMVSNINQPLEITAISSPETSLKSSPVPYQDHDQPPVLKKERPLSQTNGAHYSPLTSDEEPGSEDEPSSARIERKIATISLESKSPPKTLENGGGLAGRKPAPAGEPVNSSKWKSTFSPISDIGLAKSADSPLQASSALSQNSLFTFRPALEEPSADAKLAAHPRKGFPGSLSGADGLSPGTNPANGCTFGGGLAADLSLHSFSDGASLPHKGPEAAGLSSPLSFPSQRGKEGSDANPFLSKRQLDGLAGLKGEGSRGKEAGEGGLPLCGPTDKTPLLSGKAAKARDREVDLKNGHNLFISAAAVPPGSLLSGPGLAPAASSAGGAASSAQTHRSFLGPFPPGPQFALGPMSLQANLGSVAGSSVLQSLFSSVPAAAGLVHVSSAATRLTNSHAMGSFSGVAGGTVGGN

SMILES	DOT1L degradation over time (order of degradation) (DOT1L [1])	DOT1L degradation (western blot, nuclear extraction) (DOT1L [2])
COc1nc(Nc2cc(S(C)(=O)=O)ccc2N[C@@H](c2cccc3c2OC(F)(F)O3)c2ncccc2Cl)nc(N2CCNCC2)n1 [Compound 534]	didn't degrade DOT1L until 72 h	didn't degrade DOT1L protein
COc1nc(Nc2cc(S(C)(=O)=O)ccc2N[C@@H](c2cccc3c2OC(F)(F)O3)c2ncccc2Cl)nc(N2CCN(CCOCCNC(=O)COc3cccc4c3C(=O)N(C3CCC(=O)NC3=O)C4=O)CC2)n1 (stereo partly drawn) [Compound 588]	degraded DOT1L protein in this order	accelerated the most DOT1L degradation
CC(C)N(C[C@H]1O[C@@H](n2cnc3c(N)ncnc32)[C@H](O)[C@@H]1O)[C@H]1C[C@@H](CCc2nc3cc(C(C)(C)C)ccc3[nH]2)C1 [EPZ5676, reference compound]	didn't degrade DOT1L until 72 h	didn't degrade DOT1L protein

Reference: patent US20240238304A1, “Small Molecule Degraders of DOT1L and Uses Thereof” (Northwestern University, priority 2022, published 2024)
